Experimental data from PMC5218480 (PLoS ONE, 2017).

Test system: MV-4-11 cells
Test: Gene expression microarray analysis (Affymetrix PrimeView) and GSEA
Assay type: cell-based, human
Parameters: RFU PODN (11730768_x_at) / Fold change /veh PODN (11730768_x_at) / RFU LINC00158 (11744669_a_at) / Fold change /veh LINC00158 (11744669_a_at) / RFU DUSP10 (11751237_a_at) / Fold change /veh DUSP10 (11751237_a_at) / RFU ID3 (11757404_x_at) / Fold change /veh ID3 (11757404_x_at) / RFU PLEKHG5 (11737974_s_at) / Fold change /veh PLEKHG5 (11737974_s_at) / RFU LRRC4B (11730491_at) / Fold change /veh LRRC4B (11730491_at) / RFU GIMAP4 (11747438_a_at) / Fold change /veh GIMAP4 (11747438_a_at) / RFU KRT8 (11758183_x_at) / Fold change /veh KRT8 (11758183_x_at) / RFU CNN1 (11734310_a_at) / Fold change /veh CNN1 (11734310_a_at) / RFU VPS37D (11726825_at) / Fold change /veh VPS37D (11726825_at) / RFU C10orf10 (11716522_x_at) / Fold change /veh C10orf10 (11716522_x_at) / RFU KIR2DL2 /// KIR2DL4 /// KIR2DL5A /// KIR2DL5B /// KIR2DS1 /// KIR2DS2 /// KIR2DS3 /// KIR2DS4 /// KIR3DL3 /// KIR3DL3 /// KIR3DS1 (11738374_at) / Fold change /veh KIR2DL2 /// KIR2DL4 /// KIR2DL5A /// KIR2DL5B /// KIR2DS1 /// KIR2DS2 /// KIR2DS3 /// KIR2DS4 /// KIR3DL3 /// KIR3DL3 /// KIR3DS1 (11738374_at) / RFU C1QL1 (11718748_at) / Fold change /veh C1QL1 (11718748_at) / RFU TMPRSS4 (11747572_a_at) / Fold change /veh TMPRSS4 (11747572_a_at) / RFU HAMP (11756126_x_at) / Fold change /veh HAMP (11756126_x_at) / RFU RNFT2 (11725882_a_at) / Fold change /veh RNFT2 (11725882_a_at) / RFU NR4A2 (11747474_a_at) / Fold change /veh NR4A2 (11747474_a_at) / RFU ABCC12 (11746883_a_at) / Fold change /veh ABCC12 (11746883_a_at) / RFU TMEM136 (11760407_x_at) / Fold change /veh TMEM136 (11760407_x_at) / RFU CLDN22 /// WWC2 (11732394_at) / Fold change /veh CLDN22 /// WWC2 (11732394_at) / RFU HLA-DPB1 (11760878_x_at) / Fold change /veh HLA-DPB1 (11760878_x_at) / RFU SPINT1 (11716480_a_at) / Fold change /veh SPINT1 (11716480_a_at) / RFU GAP43 (11754022_s_at) / Fold change /veh GAP43 (11754022_s_at) / RFU A4GNT (11735810_at) / Fold change /veh A4GNT (11735810_at) / RFU PRB3 (11715151_x_at) / Fold change /veh PRB3 (11715151_x_at) / RFU TUBB4B (11761932_at) / Fold change /veh TUBB4B (11761932_at) / RFU CAPN14 (11732068_a_at) / Fold change /veh CAPN14 (11732068_a_at) / RFU TMCC2 (11721928_a_at) / Fold change /veh TMCC2 (11721928_a_at) / RFU IRGQ (11745062_a_at) / Fold change /veh IRGQ (11745062_a_at) / RFU FAM174B (11720279_a_at) / Fold change /veh FAM174B (11720279_a_at) / RFU TMPRSS4 (11748680_a_at) / Fold change /veh TMPRSS4 (11748680_a_at) / RFU FAM212B (11763350_a_at) / Fold change /veh FAM212B (11763350_a_at) / RFU PLEKHG5 (11743358_a_at) / Fold change /veh PLEKHG5 (11743358_a_at) / RFU ZSCAN30 (11745921_a_at) / Fold change /veh ZSCAN30 (11745921_a_at) / RFU CMKLR1 (11741424_a_at) / Fold change /veh CMKLR1 (11741424_a_at) / RFU LOC101060620 /// MAPK8IP1 (11723275_at) / Fold change /veh LOC101060620 /// MAPK8IP1 (11723275_at) / RFU SPTSSB (11747773_x_at) / Fold change /veh SPTSSB (11747773_x_at) / RFU PRSS12 (11739890_at) / Fold change /veh PRSS12 (11739890_at) / RFU BIN1 (11741810_x_at) / Fold change /veh BIN1 (11741810_x_at) / RFU WNT11 (11732464_a_at) / Fold change /veh WNT11 (11732464_a_at) / RFU C10orf10 (11716521_a_at) / Fold change /veh C10orf10 (11716521_a_at) / RFU C5orf56 (11738089_at) / Fold change /veh C5orf56 (11738089_at) / RFU CYB561 (11721691_x_at) / Fold change /veh CYB561 (11721691_x_at) / RFU ANKRD19P (11752326_a_at) / Fold change /veh ANKRD19P (11752326_a_at) / RFU OR2T12 /// OR2T33 /// OR2T8 (11738714_s_at) / Fold change /veh OR2T12 /// OR2T33 /// OR2T8 (11738714_s_at) / RFU VCAN (11748164_a_at) / Fold change /veh VCAN (11748164_a_at) / RFU JSRP1 (11732532_at) / Fold change /veh JSRP1 (11732532_at) / RFU KRTAP10-11 (11738290_x_at) / Fold change /veh KRTAP10-11 (11738290_x_at) / RFU MYO3A (11730013_a_at) / Fold change /veh MYO3A (11730013_a_at) / RFU EBF3 (11725865_a_at) / Fold change /veh EBF3 (11725865_a_at) / RFU CAMK2N1 (11719241_x_at) / Fold change /veh CAMK2N1 (11719241_x_at) / RFU C5orf56 (11738088_a_at) / Fold change /veh C5orf56 (11738088_a_at) / RFU OLFML3 (11715873_a_at) / Fold change /veh OLFML3 (11715873_a_at) / RFU LOC100653217 /// NTM (11731650_a_at) / Fold change /veh LOC100653217 /// NTM (11731650_a_at) / RFU MAPK11 (11762145_a_at) / Fold change /veh MAPK11 (11762145_a_at) / RFU FIZ1 (11724087_x_at) / Fold change /veh FIZ1 (11724087_x_at) / RFU OASL (11726364_x_at) / Fold change /veh OASL (11726364_x_at) / RFU SOX15 (11748057_x_at) / Fold change /veh SOX15 (11748057_x_at) / RFU CD79A (11719716_a_at) / Fold change /veh CD79A (11719716_a_at) / RFU HIST1H1D (11736915_at) / Fold change /veh HIST1H1D (11736915_at) / RFU CASKIN2 (11723855_a_at) / Fold change /veh CASKIN2 (11723855_a_at) / RFU LOC730098 (11760151_x_at) / Fold change /veh LOC730098 (11760151_x_at) / RFU OR4N2 (11742367_at) / Fold change /veh OR4N2 (11742367_at) / RFU PRRT2 (11749266_a_at) / Fold change /veh PRRT2 (11749266_a_at) / RFU SNX32 (11753110_a_at) / Fold change /veh SNX32 (11753110_a_at) / RFU CDHR5 (11726645_a_at) / Fold change /veh CDHR5 (11726645_a_at) / RFU RCAN1 (11760418_a_at) / Fold change /veh RCAN1 (11760418_a_at) / RFU FAM167A (11723789_a_at) / Fold change /veh FAM167A (11723789_a_at) / RFU FAM26E (11764081_at) / Fold change /veh FAM26E (11764081_at) / RFU ISYNA1 (11749810_s_at) / Fold change /veh ISYNA1 (11749810_s_at) / RFU ACY1 (11761880_at) / Fold change /veh ACY1 (11761880_at) / RFU 11764098_at / Fold change /veh 11764098_at / RFU SAMD14 (11745864_x_at) / Fold change /veh SAMD14 (11745864_x_at) / RFU NPB (11741838_a_at) / Fold change /veh NPB (11741838_a_at) / RFU TMPRSS6 (11731388_a_at) / Fold change /veh TMPRSS6 (11731388_a_at) / RFU KRTAP10-2 (11738614_at) / Fold change /veh KRTAP10-2 (11738614_at) / RFU ARHGAP8 /// PRR5-ARHGAP8 (11727945_x_at) / Fold change /veh ARHGAP8 /// PRR5-ARHGAP8 (11727945_x_at) / RFU KRTAP5-7 /// NADSYN1 (11734609_at) / Fold change /veh KRTAP5-7 /// NADSYN1 (11734609_at) / RFU RASL12 (11751679_a_at) / Fold change /veh RASL12 (11751679_a_at) / RFU CDKN2B (11736163_a_at) / Fold change /veh CDKN2B (11736163_a_at) / RFU PRF1 (11729649_at) / Fold change /veh PRF1 (11729649_at) / RFU, ZNF638 /// ZNF638-IT1 / Fold change vs veh, ZNF638 /// ZNF638-IT1 / RFU, PANK3 / Fold change vs veh, PANK3 / RFU, SH3YL1 / Fold change vs veh, SH3YL1 / RFU, ZEB2 / Fold change vs veh, ZEB2 / RFU, NRIP1 / Fold change vs veh, NRIP1 / RFU, PTTG1IP / Fold change vs veh, PTTG1IP / RFU, CAPN2 / Fold change vs veh, CAPN2 / RFU, MED14 / Fold change vs veh, MED14 / RFU, SNORA58 / Fold change vs veh, SNORA58 / RFU, C1orf63 / Fold change vs veh, C1orf63 / RFU, LRRFIP1 / Fold change vs veh, LRRFIP1 / RFU, NDUFAF7 / Fold change vs veh, NDUFAF7 / RFU, SLC12A2 / Fold change vs veh, SLC12A2 / RFU, IBTK / Fold change vs veh, IBTK / RFU, ESF1 / Fold change vs veh, ESF1 / Fold change vs veh, TMEM50B / RFU, TAOK1 / Fold change vs veh, TAOK1 / RFU, ACBD3 / Fold change vs veh, ACBD3 / RFU, TMA16 / Fold change vs veh, TMA16 / RFU, RWDD3 / Fold change vs veh, RWDD3 / RFU, BCAT1 / Fold change vs veh, BCAT1 / RFU, EDEM3 / Fold change vs veh, EDEM3 / RFU, TMEM33 / Fold change vs veh, TMEM33 / RFU, WDR75 / Fold change vs veh, WDR75 / RFU, AHCTF1 / Fold change vs veh, AHCTF1 / RFU, TFRC / Fold change vs veh, TFRC / RFU, ZDHHC17 / Fold change vs veh, ZDHHC17 / RFU, NOM1 / Fold change vs veh, NOM1 / RFU, ARL8B / Fold change vs veh, ARL8B / RFU, ZBTB11 / Fold change vs veh, ZBTB11 / RFU, TAMM41 / Fold change vs veh, TAMM41 / RFU, KIAA1704 /// LOC100996395 / Fold change vs veh, KIAA1704 /// LOC100996395 / RFU, ING1 / Fold change vs veh, ING1 / RFU, TRMT61B / Fold change vs veh, TRMT61B / RFU, FUBP3 / Fold change vs veh, FUBP3 / RFU, TP53 / Fold change vs veh, TP53 / RFU, TNKS2 / Fold change vs veh, TNKS2 / RFU, ZFP14 / Fold change vs veh, ZFP14 / RFU, ACTR2 / Fold change vs veh, ACTR2 / RFU, PPP3R1 / Fold change vs veh, PPP3R1 / RFU, PIK3R1 / Fold change vs veh, PIK3R1 / RFU, HNRNPA1 / Fold change vs veh, HNRNPA1 / RFU, RNF170 / Fold change vs veh, RNF170 / RFU, ZNF28 / Fold change vs veh, ZNF28 / RFU, RNGTT / Fold change vs veh, RNGTT / RFU, OGT / Fold change vs veh, OGT / RFU, BRD1 / Fold change vs veh, BRD1 / RFU, MARS / Fold change vs veh, MARS / RFU, ZNF655 / Fold change vs veh, ZNF655 / RFU, FAHD1 / Fold change vs veh, FAHD1 / RFU, BDP1 / Fold change vs veh, BDP1 / RFU, LRRCC1 / Fold change vs veh, LRRCC1 / RFU, ARID1A / Fold change vs veh, ARID1A / RFU, ZNF146 / Fold change vs veh, ZNF146 / RFU, ZNF330 / Fold change vs veh, ZNF330 / RFU, GPN3 / Fold change vs veh, GPN3 / RFU, C9orf123 / Fold change vs veh, C9orf123 / RFU, N4BP2L2 / Fold change vs veh, N4BP2L2 / RFU, ARFIP1 / Fold change vs veh, ARFIP1 / RFU, FAM179B / Fold change vs veh, FAM179B / RFU, BCL10 / Fold change vs veh, BCL10 / RFU, UHRF1BP1L / Fold change vs veh, UHRF1BP1L / RFU, BET1 / Fold change vs veh, BET1 / RFU, CNOT2 / Fold change vs veh, CNOT2 / RFU, ZNF268 / Fold change vs veh, ZNF268 / Fold change vs veh, ZNF507 / RFU, DGCR2 / Fold change vs veh, DGCR2 / RFU, WDSUB1 / Fold change vs veh, WDSUB1 / Fold change vs veh, HSP90B1 /// MIR3652 / RFU, ADSS / Fold change vs veh, ADSS / RFU, GK / Fold change vs veh, GK / RFU, ZNF148 / Fold change vs veh, ZNF148 / RFU, TAF9 / Fold change vs veh, TAF9 / RFU, SLC1A5 / Fold change vs veh, SLC1A5 / RFU, SLMO2 / Fold change vs veh, SLMO2 / RFU, ABCC4 / Fold change vs veh, ABCC4 / RFU, LOC101060439 /// RAP1B / Fold change vs veh, LOC101060439 /// RAP1B / RFU, RFX7 / Fold change vs veh, RFX7 / RFU, GTPBP10 / Fold change vs veh, GTPBP10 / RFU, CNEP1R1 / Fold change vs veh, CNEP1R1 / RFU, BIVM-ERCC5 /// ERCC5 / Fold change vs veh, BIVM-ERCC5 /// ERCC5 / RFU, ILF3 / Fold change vs veh, ILF3 / RFU 11762660_at / Fold change /veh 11762660_at / RFU VCAN (11757783_s_at) / Fold change /veh VCAN (11757783_s_at) / RFU DDX43 (11728927_at) / Fold change /veh DDX43 (11728927_at) / RFU KRT8 (11758188_x_at) / Fold change /veh KRT8 (11758188_x_at) / RFU NKD1 (11759106_at) / Fold change /veh NKD1 (11759106_at) / RFU SRD5A1 (11742802_a_at) / Fold change /veh SRD5A1 (11742802_a_at) / RFU TPSAB1 /// TPSB2 (11721975_s_at) / Fold change /veh TPSAB1 /// TPSB2 (11721975_s_at) / RFU GSTM3 (11746129_a_at) / Fold change /veh GSTM3 (11746129_a_at) / RFU IL23R (11737362_x_at) / Fold change /veh IL23R (11737362_x_at) / RFU TMEM51 (11727254_a_at) / Fold change /veh TMEM51 (11727254_a_at) / RFU PIWIL2 (11732686_x_at) / Fold change /veh PIWIL2 (11732686_x_at) / RFU ORM1 (11744905_x_at) / Fold change /veh ORM1 (11744905_x_at) / RFU CCDC152 (11743942_at) / Fold change /veh CCDC152 (11743942_at) / RFU ECM1 (11717891_a_at) / Fold change /veh ECM1 (11717891_a_at) / RFU IL23R (11748794_a_at) / Fold change /veh IL23R (11748794_a_at) / RFU TNFAIP8L3 (11732012_x_at) / Fold change /veh TNFAIP8L3 (11732012_x_at) / RFU MBOAT4 (11741988_at) / Fold change /veh MBOAT4 (11741988_at) / RFU 11764193_at / Fold change /veh 11764193_at / RFU TMEM53 (11763286_at) / Fold change /veh TMEM53 (11763286_at) / RFU MAGEB2 (11727129_at) / Fold change /veh MAGEB2 (11727129_at) / RFU TMEM200A (11744735_a_at) / Fold change /veh TMEM200A (11744735_a_at) / RFU CCDC152 (11751479_a_at) / Fold change /veh CCDC152 (11751479_a_at) / RFU FAM211A (11726209_a_at) / Fold change /veh FAM211A (11726209_a_at) / RFU RGS16 (11746705_a_at) / Fold change /veh RGS16 (11746705_a_at) / RFU VCAN (11755009_s_at) / Fold change /veh VCAN (11755009_s_at) / RFU RHOB (11743442_s_at) / Fold change /veh RHOB (11743442_s_at) / RFU RGS16 (11720943_a_at) / Fold change /veh RGS16 (11720943_a_at) / RFU RGS16 (11720944_at) / Fold change /veh RGS16 (11720944_at) / RFU, VPS4B / Fold change vs veh, VPS4B / RFU, CREB1 / Fold change vs veh, CREB1 / RFU, DNAJC13 / Fold change vs veh, DNAJC13 / RFU, GNAQ / Fold change vs veh, GNAQ / RFU, CDK5R1 / Fold change vs veh, CDK5R1 / RFU, ZRANB3 / Fold change vs veh, ZRANB3 / RFU, CUL4A / Fold change vs veh, CUL4A / RFU, CCNY / Fold change vs veh, CCNY / RFU, UFL1 / Fold change vs veh, UFL1 / RFU, COG3 / Fold change vs veh, COG3 / RFU, DIAPH2 / Fold change vs veh, DIAPH2 / RFU, SKA2 / Fold change vs veh, SKA2 / RFU, AFF3 / Fold change vs veh, AFF3 / RFU, LMF1 / Fold change vs veh, LMF1 / RFU, IPO11 / Fold change vs veh, IPO11 / RFU, DFFB / Fold change vs veh, DFFB / RFU, FOXP1 / Fold change vs veh, FOXP1 / RFU, CARD8 / Fold change vs veh, CARD8 / RFU, STRN3 / Fold change vs veh, STRN3 / RFU, ADK / Fold change vs veh, ADK / RFU, RASSF2 / Fold change vs veh, RASSF2 / RFU, WIPF1 / Fold change vs veh, WIPF1 / RFU, LARP1B / Fold change vs veh, LARP1B / RFU, RASA1 / Fold change vs veh, RASA1 / RFU, RB1 / Fold change vs veh, RB1 / RFU, PPFIA1 / Fold change vs veh, PPFIA1 / RFU, MAT2A / Fold change vs veh, MAT2A / RFU, CCT5 / Fold change vs veh, CCT5 / RFU, WDR92 / Fold change vs veh, WDR92 / RFU, CUX1 / Fold change vs veh, CUX1 / RFU, TTC7A / Fold change vs veh, TTC7A / RFU, TMEM135 / Fold change vs veh, TMEM135 / RFU, DEPTOR / Fold change vs veh, DEPTOR / RFU, CPM / Fold change vs veh, CPM / RFU, DNAJB6 / Fold change vs veh, DNAJB6 / RFU, CACNA2D3 / Fold change vs veh, CACNA2D3 / RFU, DTX4 / Fold change vs veh, DTX4 / RFU, TFCP2 / Fold change vs veh, TFCP2 / RFU, GMCL1 /// GMCL1P1 / Fold change vs veh, GMCL1 /// GMCL1P1 / RFU, AEBP2 / Fold change vs veh, AEBP2 / RFU, SNHG1 /// SNORD22 /// SNORD25 /// SNORD26 /// SNORD27 /// SNORD28 /// SNORD29 /// SNORD31 / Fold change vs veh, SNHG1 /// SNORD22 /// SNORD25 /// SNORD26 /// SNORD27 /// SNORD28 /// SNORD29 /// SNORD31 / Fold change (Aza/veh), C12orf56 (ProbeSet 11735607_a_at) / Fold change (ACY-1035/veh), C12orf56 (ProbeSet 11735607_a_at) / Fold change (Aza/veh), FGFR1OP (ProbeSet 11751329_s_at) / Fold change (ACY-1035/veh), FGFR1OP (ProbeSet 11751329_s_at) / Fold change (Aza/veh), VPS36 (ProbeSet 11739960_a_at) / Fold change (ACY-1035/veh), VPS36 (ProbeSet 11739960_a_at) / RFU SYPL1 (11715823_x_at) / Fold change /veh SYPL1 (11715823_x_at) / RFU IGFBP7 (11715501_s_at) / Fold change /veh IGFBP7 (11715501_s_at) / RFU REEP3 (11722064_at) / Fold change /veh REEP3 (11722064_at) / RFU IGLL1 (11728026_x_at) / Fold change /veh IGLL1 (11728026_x_at): dose or concentration left out as unconfirmed
Conditions: MV-4-11 cells, 48 hours

With `Nc1ncn([C@@H]2O[C@H](CO)[C@@H](O)[C@H]2O)c(=O)n1` [azacitidine] the “RFU OASL (11726364_x_at)” value was 34.50 RFU.
